Values of other authors, collected in paper PMC2818531 (Bioorganic & medicinal chemistry letters, 2009).
pEC50: −log10 of the molar value.

Target: HIV gp41 six-helix bundle (6-HB) (Human immunodeficiency virus type 1 group M subtype B, UniProt P04578)
Conditions: read-out: EC50, inhibition of gp41 6-helical bundle formation

Chain of HIV gp41 six-helix bundle (6-HB) (P04578 546-581): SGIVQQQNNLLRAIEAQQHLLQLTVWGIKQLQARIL

Cc1ccc(C)n1-c1ccc(O)c(C(=O)O)c1 [Ligand A12]
pEC50: 4.43
